Laboratory results as given in patent publication US20240279202A1 (NURIX THERAPEUTICS, INC., priority 2021, published 2024).

Target: T1, ITK (Homo sapiens, UniProt Q08881)
T1 sequence (Q08881 1-620): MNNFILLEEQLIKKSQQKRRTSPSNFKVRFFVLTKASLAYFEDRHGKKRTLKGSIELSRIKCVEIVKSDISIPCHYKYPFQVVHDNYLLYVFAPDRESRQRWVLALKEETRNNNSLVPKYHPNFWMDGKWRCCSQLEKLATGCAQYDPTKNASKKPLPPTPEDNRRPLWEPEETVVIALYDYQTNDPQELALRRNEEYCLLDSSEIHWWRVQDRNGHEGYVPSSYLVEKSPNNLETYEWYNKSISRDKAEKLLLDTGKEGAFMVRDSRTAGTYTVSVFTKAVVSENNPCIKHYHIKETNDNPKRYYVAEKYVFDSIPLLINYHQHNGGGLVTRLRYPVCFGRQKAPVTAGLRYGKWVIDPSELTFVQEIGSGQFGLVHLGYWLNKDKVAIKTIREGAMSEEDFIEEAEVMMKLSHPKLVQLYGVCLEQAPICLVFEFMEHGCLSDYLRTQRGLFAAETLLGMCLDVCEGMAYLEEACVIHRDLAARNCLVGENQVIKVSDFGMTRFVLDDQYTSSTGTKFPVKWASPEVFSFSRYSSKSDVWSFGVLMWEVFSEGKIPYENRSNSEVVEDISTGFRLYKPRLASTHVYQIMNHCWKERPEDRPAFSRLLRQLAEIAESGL
Experiment: ITK degradation HiBiT assay
Type: cell-based
Set-up: expressed in transfected cells; host or cells: Molt4 (ATCC CRL-1552), monoclonal clone 1C10, engineered to carry the HiBiT tag
Conditions: 4 hrs; for Dmax: MOLT-4, C-terminal HiBiT-tagged Molt4 cells
Procedure, shortened: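 C-terminal HiBiT-tagged Molt4 cells (clone 1C10) treated 4 h at 32° C with an 11-point, 5-fold compound dilution series (0.5% DMSO). HiBiT lytic detection with LgBiT then luminescence read; % ITK remaining versus concentration fit by four-parameter variable-slope model to give DC50 and Dmax.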

[1] = C-terminal HiBiT-tagged Molt4 cells

## C[C@@]12Cc3[nH]nc(C(=O)Nc4cnn(C5CCN(CC6CCN(c7ccc([C@H]8CCC(=O)NC8=O)cc7F)CC6)CC5)c4)c3C[C@@H]1C2(F)F [Compound 118, (4aS,5aR)-N-(1-{1-[(1-{4-[(3R)-2,6-dioxopiperidin-3-yl]-2-fluorophenyl}piperidin-4-yl)methyl]piperidin-4-yl}-1H-pyrazol-4-yl)-5,5-difluoro-5a-methyl-1H,4H,4aH,5H,5aH,6H-cyclopropa[f]indazole-3-carboxamide]
[1]
  DC50: 0.467 nM
  Dmax: 77%

## CC1(C)CCc2c(-c3cc4cc(F)c(C(=O)N5CCN(CC6CCN(c7ccc(C8CCC(=O)NC8=O)nc7)CC6)CC5)cc4[nH]3)n[nH]c2C1 (stereo not shown) [Compound 216, 3-{5-[4-({4-[2-(6,6-dimethyl-1,4,5,7-tetrahydroindazol-3-yl)-5-fluoro-1H-indole-6-carbonyl]piperazin-1-yl}methyl)piperidin-1-yl]pyridin-2-yl}piperidine-2,6-dione]
[1]
  DC50: 0.06 nM
  Dmax: 87%

## C[C@@]12Cc3[nH]nc(C(=O)Nc4cnn(C5CCC(CN6CCN(c7ccc(C8CCC(=O)NC8=O)cc7)CC6)CC5)c4)c3C[C@@H]1C2(F)F (mixture of isomers) [Compound 126, (4aS,5aR)-5,5-difluoro-5a-methyl-N-{1-[(1rs,4rs)-4-[(4-{4-[(3RS)-2,6-dioxopiperidin-3-yl]phenyl}piperazin-1-yl)methyl]cyclohexyl]-1H-pyrazol-4-yl}-1H,4H,4aH,5H,5aH,6H-cyclopropa[f]indazole-3-carboxamide]
[1]
  DC50: 1.4 nM
  Dmax: 91%

## Cn1c(=O)n(C2CCC(=O)NC2=O)c2cccc(N3CCC(C(=O)N4CC(n5cc(NC(=O)c6n[nH]c7c6C[C@@H]6C(F)(F)[C@]6(C)C7)cn5)C4)CC3)c21 (stereo partly drawn) [Compound 56, (4aS,5aR)-N-(1-(1-(1-(1-(2,6-dioxopiperidin-3-yl)-3-methyl-2-oxo-2,3-dihydro-1H-benzo[d]imidazol-4-yl)piperidine-4-carbonyl)azetidin-3-yl)-1H-pyrazol-4-yl)-5,5-difluoro-5a-methyl-1,4,4a,5,5a,6-hexahydrocyclopropa[f]indazole-3-carboxamide]
[1]
  DC50: 0.013 nM
  Dmax: 64%

## C[C@@H]1CN(c2ccc(C3CCC(=O)NC3=O)cn2)CCN1CC1CCN(C(=O)c2ccc3cc(-c4n[nH]c5c4CCC(C)(C)C5)[nH]c3c2)CC1 (stereo partly shown) [Compound 189]
  Dmax: 84%

## Cn1c(=O)n(C2CCC(=O)NC2=O)c2ccc(N[C@H]3CC[C@H](C(=O)N4CCC(n5cc(NC(=O)c6n[nH]c7c6C[C@@H]6C(F)(F)[C@]6(C)C7)cn5)CC4)CC3)cc21 (mixture of isomers) [Compound 169]
  Dmax: 80%

## C[C@@H](C(=O)N(C)c1ccc2cc(-c3n[nH]c4c3C[C@@H]3C(F)(F)[C@]3(C)C4)[nH]c2c1)N1CCN(CC2CCN(c3cc(C4CCC(=O)NC4=O)ccn3)CC2)CC1 (stereo partly drawn) [Compound 23, (2S)—N-(2-((4aS,5aR)-5,5-difluoro-5a-methyl-1,4,4a,5,5a,6-hexahydrocyclopropa[f]indazol-3-yl)-1H-indol-6-yl)-2-(4-((1-(4-(2,6-dioxopiperidin-3-yl)pyridin-2-yl)piperidin-4-yl)methyl)piperazin-1-yl)-N-methylpropanamide]
[1]
  DC50: < 0.001 nM
  Dmax: 82%

## C[C@@]12Cc3[nH]nc(C(=O)Nc4cnn(C5CCN(C(=O)C6CCN(c7ccc(C(=O)NC8CCC(=O)NC8=O)nc7)CC6)CC5)c4)c3C[C@@H]1C2(F)F (mixture of isomers) [Compound 180]
  Dmax: 72%

## C[C@@]12Cc3[nH]nc(C(=O)Nc4cnn(C5CCN(CC6CCN(c7ccc([C@@H]8CCC(=O)NC8=O)cc7)CC6)CC5)c4)c3C[C@@H]1C2(F)F [Compound 116, (4aS,5aR)-N-(1-{1-[(1-{4-[(3S)-2,6-dioxopiperidin-3-yl]phenyl}piperidin-4-yl)methyl]piperidin-4-yl}-1H-pyrazol-4-yl)-5,5-difluoro-5a-methyl-1H,4H,4aH,5H,5aH,6H-cyclopropa[f]indazole-3-carboxamide]
[1]
  DC50: 0.9 nM
  HiBiT DMax (%): 89%

## C[C@@]12Cc3[nH]nc(C(=O)Nc4cnn(CC5CCN(CC6CCN(c7ccc(C8CCC(=O)NC8=O)cc7)CC6)CC5)c4)c3C[C@@H]1C2(F)F (mixture of isomers) [Compound 119, (4aS,5aR)-N-[1-({1-[(1-{4-[(3RS)-2,6-dioxopiperidin-3-yl]phenyl}piperidin-4-yl)methyl]piperidin-4-yl}methyl)-1H-pyrazol-4-yl]-5,5-difluoro-5a-methyl-1H,4H,4aH,5H,5aH,6H-cyclopropa[f]indazole-3-carboxamide]
[1]
  DC50: 0.041 nM
  Dmax: 85%

## C[C@@]12Cc3[nH]nc(C(=O)Nc4cnn(C5CCC(C(=O)N6CCN(c7ccc(C8CCC(=O)NC8=O)cc7)CC6)CC5)c4)c3C[C@@H]1C2(F)F (mixture of isomers) [Compound 179]
  Dmax: 88%

## C[C@@H]1CN(C(=O)c2ccc3cc(-c4n[nH]c5c4C[C@@H]4C(F)(F)[C@]4(C)C5)[nH]c3c2)CCN1CC1CCN(c2ccc(C3CCC(=O)NC3=O)cc2F)CC1 (stereo partly shown) [Compound 161]
  Dmax: 85%

## C[C@@]12Cc3[nH]nc(C(=O)Nc4cnn(C5CCN(CC6CCN(c7ccc(N8CCC(=O)NC8=O)cc7)CC6)CC5)c4)c3C[C@@H]1C2(F)F [Compound 207, (4aS,5aR)-N-(1-(1-((1-(4-(2,4-dioxotetrahydropyrimidin-1(2H)-yl)phenyl)piperidin-4-yl)methyl)piperidin-4-yl)-1H-pyrazol-4-yl)-5,5-difluoro-5a-methyl-1,4,4a,5,5a,6-hexahydrocyclopropa[f]indazole-3-carboxamide]
[1]
  DC50: 0.49 nM
  Dmax: 65%

## CC1(C)CCc2c(-c3cc4ccc(C(=O)N5CCN(CCC6CCN(c7cc(C8CCC(=O)NC8=O)ccn7)CC6)CC5)cc4[nH]3)n[nH]c2C1 (stereo not shown) [Compound 186]
  Dmax: 87%

## C[C@@H]1CN(CC2CCN(c3ccc(C4CCC(=O)NC4=O)cn3)CC2)CCN1C(=O)c1ccc2cc(-c3n[nH]c4c3CCC(C)(C)C4)[nH]c2c1 (stereo partly drawn) [Compound 132, 3-(6-(4-(((R)-4-(2-(6,6-dimethyl-4,5,6,7-tetrahydro-1H-indazol-3-yl)-1H-indole-6-carbonyl)-3-methylpiperazin-1-yl)methyl)piperidin-1-yl)pyridin-3-yl)piperidine-2,6-dione]
[1]
  DC50: 7 nM
  Dmax: 82%

## C[C@H]1CN(C(=O)c2ccc3cc(-c4n[nH]c5c4CCC(C)(C)C5)[nH]c3c2)CCN1CC1CCN(c2ccc(C3CCC(=O)NC3=O)cc2)CC1 (mixture of isomers) [Compound 152]
  Dmax: 80%

## C[C@@]12Cc3[nH]nc(C(=O)Nc4cnn([C@H]5CCN(C[C@@H]6CCN(c7ccc(C8CCC(=O)NC8=O)cc7)C6)C[C@@H]5F)c4)c3C[C@@H]1C2(F)F (stereo partly drawn) [Compound 100, (4aS,5aR)-N-(1-((3S,4S)-1-(((3S)-1-(4-(2,6-dioxopiperidin-3-yl)phenyl)pyrrolidin-3-yl)methyl)-3-fluoropiperidin-4-yl)-1H-pyrazol-4-yl)-5,5-difluoro-5a-methyl-1,4,4a,5,5a,6-hexahydrocyclopropa[f]indazole-3-carboxamide]
[1]
  DC50: 1.7 nM
  Dmax: 86%

## C[C@@]12Cc3[nH]nc(-c4cc5cc(F)c(C(=O)N6CCN(CC7CCN(c8ccc(C9CCC(=O)NC9=O)cc8)CC7)CC6)cc5[nH]4)c3C[C@@H]1C2(F)F (stereo partly drawn) [Compound 138, 3-(4-(4-((4-(2-((4aS,5aR)-5,5-difluoro-5a-methyl-1,4,4a,5,5a,6-hexahydrocyclopropa[f]indazol-3-yl)-5-fluoro-1H-indole-6-carbonyl)piperazin-1-yl)methyl)piperidin-1-yl)phenyl)piperidine-2,6-dione]
[1]
  DC50: 0.076 nM
  Dmax: 83%

## C[C@@]12Cc3[nH]nc(C(=O)Nc4cnn(C5CCN(C(=O)CC6CCN(c7ccc(C8CCC(=O)NC8=O)cn7)CC6)CC5)c4)c3C[C@@H]1C2(F)F (mixture of isomers) [Compound 166]
  Dmax: 88%

## C[C@@]12Cc3[nH]nc(C(=O)Nc4cnn([C@H]5CCN(CC6CCN(c7ccc(C(=O)N[C@H]8CCC(=O)NC8=O)nc7)CC6)C[C@@H]5F)c4)c3C[C@@H]1C2(F)F [Compound 93, (4aS,5aR)-N-(1-((3S,4S)-1-((1-(6-(((S)-2,6-dioxopiperidin-3-yl)carbamoyl)pyridin-3-yl)piperidin-4-yl)methyl)-3-fluoropiperidin-4-yl)-1H-pyrazol-4-yl)-5,5-difluoro-5a-methyl-1,4,4a,5,5a,6-hexahydrocyclopropa[f]indazole-3-carboxamide]
[1]
  DC50: 1.9 nM
  Dmax: 97%

## C[C@@]12Cc3[nH]nc(C(=O)Nc4cnn(C5CCN(CC6CCN(c7ccc(N8CCC(=O)NC8=O)cc7)C6)CC5)c4)c3C[C@@H]1C2(F)F (stereo partly drawn) [Compound 209, (4aS,5aR)-N-(1-(1-((1-(4-(2,4-dioxotetrahydropyrimidin-1(2H)-yl)phenyl)pyrrolidin-3-yl)methyl)piperidin-4-yl)-1H-pyrazol-4-yl)-5,5-difluoro-5a-methyl-1,4,4a,5,5a,6-hexahydrocyclopropa[f]indazole-3-carboxamide]
[1]
  DC50: 0.345 nM
  Dmax: 78%
